# Assays:
# [1] = tested on: canine model of repetitive transient regional ischemia; test: Myocardial stunning in dogs, repetitive transient regional ischemia; type: in vivo, dog
# Protocol: The compound of the subject invention provided both an acute and delayed protective effect against cardiac stunning in dogs. Pretreatment of dogs with the compound of the subject invention 10 minutes and 24 hours prior to ischemia produced significant improvement in the recovery of regional segment shortening (%SS) in the ischemic-reperfused myocardium of anesthetized dogs subjected to a multiple ischemia/reperfusion stunning protocol. Dogs were subjected to five 5-minute periods of coronary artery occlusion interspersed with 10 minute periods of reperfusion and finally followed by 2 hours of reperfusion. Regional systolic shortening in the subendocardium of the ischemic area was determined by sonomicrometry by placing a set of piezoelectric crystals in the subendocardium approximately 10-15 mm apart. Regional myocardial blood flow was determined by the radioactive microsphere technique during the first 5 min occlusion period and at the end of 2 h of reperfusion. Hemodynamics and blood gases were also measured at various times throughout the experiment. There was no significant differences between the control and pretreated groups in body weight, left ventricular weight, area at risk weight or the area at risk as a % of the left ventricle. […]
# [2] = tested on: Adult mongrel dogs, left anterior descending coronary artery (LAD) occlusion/reperfusion; test: Infarct size in the dog, 60 min LAD occlusion and 3 h reperfusion; type: in vivo; conditions: L34 35 μg/kg 24 h before occlusion + aminoguanidine (AG) 30 mg/kg s.c. 60 min before occlusion; mean ± SEM; 30 mg/kg
# Protocol: Adult mongrel dogs of either sex, weighing 19.0-30.0 kg were fasted overnight, anaesthetized with intravenous sodium barbital (200 mg/kg) and sodium pentobarbital (15 mg/kg), and ventilated with room air supplemented with 100% oxygen at an end expiratory pressure of 5-7 cm H2O to prevent atelectasis. Arterial blood pH PO2 and PCO2 were monitored at selected intervals by an automatic blood gas system and maintained within a normal physiological range (pH 7.35-7.45, PO2 10.6-16.0 kPa, PCO2 3,3-4.7 kPa) by adjusting the respiratory rate and oxygen flow and by an infusion of 1.5% sodium bicarbonate when necessary. Body temperature was maintained at 38±1° C. by using a heating pad.
# A double pressure-transducer-tipped catheter was inserted into the aorta and left ventricle via the left carotid artery for measurements of aortic and left ventricular pressure. Left ventricular dP/dt was determined by electronic differentiation of the left ventricular pressure pulse.
# A left thoracotomy was performed at the fifth intercostal space. The lung was retracted, the pericardium incised, and the heart suspended in a cradle. A 10-15 mm segment of the left anterior descending coronary artery (LAD) was dissected from surrounding tissue. […]
# Regional myocardial blood flow was measured by the radioactive microsphere technique. […]
smiles,measurement,setting,value
"CCCCCCCCCCCCCCCCCC(=O)O[C@H](CCCCCCCCCCC)CC(=O)N[C@H]1[C@H](OC[C@H]2OC(O)[C@H](NC(=O)C[C@@H](CCCCCCCCCCC)OC(=O)CCCCCCCCCCCCCCC)[C@@H](O)[C@@H]2O)O[C@H](CO)[C@@H](OP(=O)(O)O)[C@@H]1OC(=O)C[C@@H](CCCCCCCCCCC)OC(=O)CCCCCCCCCCCCC (stereo partly drawn) [L34, 2-Deoxy-6-O-[2-deoxy-4-O-phosphono-3-O-[(R)-3-tetradecanoyloxytetradecanoyl]-2-[(R)-3-octadecanoyloxytetradecanoylamino]-β-D-glucopyranosyl]-2-[(R)-3-hexadecanoyloxytetradecanoylamino]-D-glucopyranose]",recovery of regional wall motion (%SS) vs control group,"[1]; 24 h pretreatment, after 1st and 4th occlusion and all times of final 2 h reperfusion, FIG. 6",significantly greater recovery of regional wall motion (%SS)
same,recovery of regional wall motion (%SS) vs control group,"[1]; pretreatment 10 min prior to first occlusion, after 1st, 2nd, 4th occlusion and all times of final 2 h reperfusion, FIG. 5",significantly greater recovery of regional wall motion (%SS)
same,IS/AAR(%) (infarct size / area at risk),[2],25.2±2.7%
